Data as given in ChEMBL document CHEMBL4732108, “Targeting the K11.1 (hERG) channel with allosteric modulators. Synthesis and biological evaluation of three novel series of LUF7346 derivatives” (Eur J Med Chem, 2021).
Calls of active or inactive are those of the source. The calls are words filed in the database; no cut-off is given here.

Legend:
hERG (KCNH2) = hERG (KCNH2) (Homo sapiens, UniProt Q12809); experiment: Displacement of [3H]dofetilide from human ERG stably expressed in HEK293 cell membranes assessed as residual binding level at 10 uM measured after 60 mins by microbeta liquid scintillation counting method relative to control; design: species or system Membrane; settings: membranes of HEK293 cells stably expressing hERG, probe [3H]dofetilide, read-out: Activity
Chain of hERG (KCNH2) (Q12809 whole entry): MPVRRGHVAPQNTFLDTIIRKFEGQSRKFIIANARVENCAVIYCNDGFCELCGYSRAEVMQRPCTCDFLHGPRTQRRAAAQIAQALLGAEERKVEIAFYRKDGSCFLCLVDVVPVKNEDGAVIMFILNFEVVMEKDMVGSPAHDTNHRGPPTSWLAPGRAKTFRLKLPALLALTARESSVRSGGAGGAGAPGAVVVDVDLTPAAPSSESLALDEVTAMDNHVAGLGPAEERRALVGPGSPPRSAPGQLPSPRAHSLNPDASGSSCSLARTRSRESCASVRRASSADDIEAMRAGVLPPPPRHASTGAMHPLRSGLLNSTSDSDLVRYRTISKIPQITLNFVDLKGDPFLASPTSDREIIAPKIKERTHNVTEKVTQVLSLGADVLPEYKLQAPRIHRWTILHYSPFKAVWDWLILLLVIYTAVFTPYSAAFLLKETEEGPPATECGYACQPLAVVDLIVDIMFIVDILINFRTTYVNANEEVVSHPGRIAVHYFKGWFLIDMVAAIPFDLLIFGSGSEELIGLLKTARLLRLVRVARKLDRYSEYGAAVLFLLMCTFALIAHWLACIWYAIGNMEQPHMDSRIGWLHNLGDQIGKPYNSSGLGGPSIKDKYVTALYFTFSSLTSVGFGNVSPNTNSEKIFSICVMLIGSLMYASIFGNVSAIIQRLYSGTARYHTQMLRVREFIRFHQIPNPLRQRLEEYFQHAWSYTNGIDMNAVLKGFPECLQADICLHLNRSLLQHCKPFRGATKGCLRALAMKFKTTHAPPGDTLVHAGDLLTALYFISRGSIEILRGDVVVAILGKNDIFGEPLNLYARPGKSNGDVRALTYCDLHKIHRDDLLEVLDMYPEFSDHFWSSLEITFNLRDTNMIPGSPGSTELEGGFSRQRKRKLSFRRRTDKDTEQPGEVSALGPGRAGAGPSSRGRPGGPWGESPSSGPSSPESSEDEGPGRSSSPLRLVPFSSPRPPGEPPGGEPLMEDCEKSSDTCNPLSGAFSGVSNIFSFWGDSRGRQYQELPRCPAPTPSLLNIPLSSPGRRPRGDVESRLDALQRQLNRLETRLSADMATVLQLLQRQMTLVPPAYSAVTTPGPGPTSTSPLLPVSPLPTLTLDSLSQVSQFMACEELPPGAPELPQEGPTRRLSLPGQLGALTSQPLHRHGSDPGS

[1] = molecular target: T1, Voltage-gated inwardly rectifying potassium channel KCNH2 (Homo sapiens, UniProt Q12809); experiment: Displacement of [3H]dofetilide from human ERG stably expressed in HEK293 cell membranes assessed as unlabelled dofetilide IC50 at 1 uM measured after 60 mins by microbeta liquid scintillation counting method (reference value: 9.1 to 11.7 nM); design: species or system Membrane
T1 sequence (Q12809 whole entry): as above

[2] = molecular target: T1, Voltage-gated inwardly rectifying potassium channel KCNH2; experiment: Displacement of [3H]dofetilide from human ERG stably expressed in HEK293 cell membranes assessed as unlabelled dofetilide IC50 at 3 uM measured after 60 mins by microbeta liquid scintillation counting method (reference value: 9.1 to 11.7 nM); design: species or system Membrane
[3] = system: Stem cell-derived cardiomyocyte; experiment: Effect on human iPSC-derived cardiomyocytes assessed as shortening of field potential duration by microarray electrode based assay; assay type: functional, tissue-based
[4] = system: Stem cell-derived cardiomyocyte; experiment: Effect on human iPSC-derived cardiomyocytes assessed as reduction in beating rate by measuring change in RR interval at higher concentration by microarray electrode based assay; assay type: functional
[5] = system: Stem cell-derived cardiomyocyte; experiment: Effect on human iPSC-derived cardiomyocytes assessed as suppression of dofetilide-induced increase in field potential duration at 10 to 30 uM by microarray electrode based assay; assay type: functional; settings: dose 10-30 µM
[6] = system: Stem cell-derived cardiomyocyte; experiment: Effect on dofetilide-induced reduction in RR interval in human iPSC-derived cardiomyocytes at 10 to 30 uM by microarray electrode based assay; assay type: functional; settings: dose 10-30 µM
[7] = molecular target: T1, Voltage-gated inwardly rectifying potassium channel KCNH2; experiment: Negative allosteric modulation of human ERG stably expressed in HEK293 cells assessed as increase in current density at 5 uM with -60 mV holding potential measured after 5 mins by whole cell patch clamp method; settings: hek293, 5 min
[8] = system: Stem cell-derived cardiomyocyte; experiment: Effect on human iPSC-derived cardiomyocytes assessed as prolongation of field potential duration by microarray electrode based assay; assay type: functional, tissue-based
[9] = system: Stem cell-derived cardiomyocyte; experiment: Effect on human iPSC-derived cardiomyocytes assessed as reduction in beating rate by measuring change in RR interval at 30 uM by microarray electrode based assay; assay type: functional, tissue-based
[10] = molecular target: T1, Voltage-gated inwardly rectifying potassium channel KCNH2; experiment: Channel blockade of human ERG stably expressed in HEK293 cells assessed as decrease in current density at 5 uM with -60 mV holding potential measured after 5 mins by whole cell patch clamp method; settings: hek293, 5 min
[11] = system: Stem cell-derived cardiomyocyte; experiment: Effect on human iPSC-derived cardiomyocytes assessed as change in field potential duration by microarray electrode based assay; assay type: functional
[12] = system: Stem cell-derived cardiomyocyte; experiment: Effect on human iPSC-derived cardiomyocytes assessed as suppression of dofetilide-induced increase in field potential duration by microarray electrode based assay; assay type: functional
[13] = system: Stem cell-derived cardiomyocyte; experiment: Effect on dofetilide-induced reduction in RR interval in human iPSC-derived cardiomyocytes by microarray electrode based assay; assay type: functional
[14] = molecular target: T1, Voltage-gated inwardly rectifying potassium channel KCNH2; experiment: Displacement of [3H]dofetilide from human ERG stably expressed in HEK293 cell membranes assessed as unlabelled dofetilide IC50 at 10 uM measured after 60 mins by microbeta liquid scintillation counting method (reference value: 9.1 to 11.7 nM); design: species or system Membrane

SMILES	activity at 1 h, 10 µM (hERG (KCNH2))	further results
COc1ccc(C#N)cc1NC(=O)COc1ccc(C(=O)c2cc(Cl)ccc2Br)cc1	28%	–
N#Cc1ccc(Cl)c(NC(=O)COc2ccc(C(=O)c3cc(Cl)ccc3Br)cc2)c1	44%	–
O=C(COc1ccc(C(=O)c2cc(Cl)ccc2Br)cc1)Nc1cccc(C(=O)NC2CC2)c1	27%	–
O=C(COc1ccc(C(=O)c2cc(Cl)ccc2Br)cc1)Nc1ccnc(C(=O)NCC2CC2)c1	53%	–
N#Cc1cc(NC(=O)COc2ccc(C(=O)c3cc(Cl)ccc3Br)cc2)ccc1Cl	86%	–
N#Cc1cc(NC(=O)COc2ccc(C(=O)c3cc(Cl)ccc3Br)cc2)ccc1F	22.7%	–
O=C(COc1ccc(C(=O)c2cc(Cl)ccc2Br)cc1)Nc1ccc(Cl)c(C(=O)NCC2CC2)c1	20%	–
O=C(COc1ccc(C(=O)c2cc(Cl)ccc2Br)cc1)Nc1cccc(C(=O)NCC2CC2)c1	36.6%	–
N#Cc1cccc(NC(=O)COc2ccc(C(=O)c3cc(Cl)ccc3Br)cc2)c1	20%	IC50 [1]: 28.3 nM
Cc1cnccc1NC(=O)COc1ccc(C(=O)c2cc(Cl)ccc2Br)cc1	15%	IC50 [2]: 14.1 nM
O=C(COc1ccc(C(=O)c2ccccc2Br)cc1)Nc1cccnc1	29.8%	Activity [3]: Dose-dependent effect; Activity [4]: Active; Activity [5]: Active; Activity [6]: inactive; Activity [7]: Active
Cc1ccc(NC(=O)COc2ccc(C(=O)c3cc(Cl)ccc3Br)cc2)cc1C#N	87%	–
O=C(COc1ccc(C(=O)c2cc(Cl)ccc2Br)cc1)Nc1ccnc(F)c1	56.1%	–
O=C(COc1ccc(C(=O)c2cc(Cl)ccc2Br)cc1)Nc1cncc(C(=O)NCC2CC2)c1	2%	Activity [8]: Active; Activity [4]: Active; Activity [9]: Active; Activity [10]: Active
CNC(=O)c1cccc(NC(=O)COc2ccc(C(=O)c3cc(Cl)ccc3Br)cc2)c1	39.8%	–
COc1ccc(NC(=O)COc2ccc(C(=O)c3cc(Cl)ccc3Br)cc2)cc1C#N	60%	–
N#Cc1cccc(NC(=O)COc2ccc(C(=O)c3cc(Cl)ccc3Br)cc2)c1F	21%	–
O=C(COc1ccc(C(=O)c2cc(Cl)ccc2Br)cc1)Nc1ccnc(Cl)c1	52%	–
COc1cc(NC(=O)COc2ccc(C(=O)c3cc(Cl)ccc3Br)cc2)ccn1	90%	–
O=C(COc1ccc(C(=O)c2cc(Cl)ccc2Br)cc1)Nc1cccc(C(=O)NCC2CC2)c1Cl	-2%	–
N#Cc1cncc(NC(=O)COc2ccc(C(=O)c3cc(Cl)ccc3Br)cc2)c1	–	Activity [11]: inactive; Activity [4]: Active; Activity [12]: inactive; Activity [13]: inactive
N#Cc1cc(Cl)cc(NC(=O)COc2ccc(C(=O)c3cc(Cl)ccc3Br)cc2)c1	36%	–
O=C(COc1ccc(C(=O)c2cc(Cl)ccc2Br)cc1)Nc1cc(C(=O)NCC2CC2)ccc1Cl	89%	–
O=C(COc1ccc(C(=O)c2cc(Cl)ccc2Br)cc1)Nc1cccnc1	28.2%	–
CC(C)CNC(=O)c1cccc(NC(=O)COc2ccc(C(=O)c3cc(Cl)ccc3Br)cc2)c1	46%	–
Cc1cc(NC(=O)COc2ccc(C(=O)c3cc(Cl)ccc3Br)cc2)ccn1	9%	Activity [8]: Active; Activity [4]: inactive; Activity [12]: inactive; Activity [13]: inactive; Activity [10]: Active
O=C(COc1ccc(C(=O)c2cc(Cl)ccc2Br)cc1)Nc1cccc(C(=O)NCC2CCC2)c1	38%	–
O=C(COc1ccc(C(=O)c2cc(Cl)ccc2Br)cc1)Nc1cc(Cl)cc(C(=O)NCC2CC2)c1	36%	–
O=C(COc1ccc(C(=O)c2cc(Cl)ccc2Br)cc1)Nc1ccncc1	26.1%	IC50 [14]: 43.7 nM
